Entries after “also recorded” stand apart in the source; their conditions may differ.
Tests used:
CD44 high CD8+ T cells = assay: Seahorse OCR, ATP production and SRC in vitro, CD44 high cells; assay type: cell-based, mice; settings: SPD 0.2 μM
Experimental: (§1) FIG. 4 CD8^+ T cells were isolated from the spleen of mice without tumor inoculation, and further isolated into CD44^+ (CD44 high) and CD44^− (CD44 low) cell populations. a) CD44 low cells were simulated with CD3/CD28 antibody beads and SPD (0.2 μM). After 30 minutes, 1 hour, 2 hours and 72 hours, OCR was measured with a Seahorse analyzer. b) At the same time, total ATP production and glycolytic pathway-derived or mitochondrial activity-derived ATP production were calculated at 30-minute, 1-hour and 2-hour. c) CD44 low cells (2×10^5 cells) were stimulated with CD3/CD28 antibody beads and SPD (0.2 μM). After 24 hours, cell proliferation was examined by means of 3H uptake. d) Spare respiratory capacity (SRC) was calculated from the OCR measurement after 72 hours in a), and results with and without SPD were compared. e) CD44 low cells were stimulated with CD3/CD28 antibody beads and SPD (0.2 μM). After 24 hours, frequencies between apoptotic and viable cells were calculated by PI and Annexin staining. f-j) CD44 high cells were analyzed under the same conditions and by the same methods as described in a-e) above. As regards statistical analysis, t-test was used for comparison of two groups, and ANOVA was used for comparison of three or more groups. * p<0.05, ** p<0.01, *** p<0.001, **** p<0.0001.
Oxygen consumption rates were measured using an XF96 Extracellular Flux Analyzer (Seahorse Bioscience). CD8^+ T cells (4×10^5) per well were seeded in a determined XF96 plate. The four chemical modulators of mitochondrial oxidative phosphorylation, which came with an XF Cell Mito Stress Test Kit (Seahorse Bioscience), were added to the module sequentially. In brief, basal OCR measurement was performed […] sequential addition of oligomycin, FCCP, and rotenone/antimycin A. SRC and ATP production rates were calculated by the following formulas:
SRC (pmo; 02/min)=OCRmaximal−OCRbasal
mitoATP (pmol ATP/min)=(OCRbasal−OCRoligo)×5.5.

CD44 low CD8+ T cells = assay: PI and Annexin apoptosis assay, CD44 low cells; assay type: cell-based, mice; settings: in the presence of SPD 0.2 μM
Experimental: as §1, with “[…] All flow cytometry experiments were performed on FACS Canto II (BD Biosciences)” for “As regards statistical analysis, t-test was used for comparison of two groups,”, “analyzed using FlowJo software (FLOWJO, LLC). […]” for “ANOVA was used for comparison of three or more groups. * p<0.05, ** p<0.01, *** p<0.001, **** p<0.0001.”

[1] = system: CD8+ T cells in draining lymph nodes; assay: CD3/CD28 restimulation of draining lymph node CD8+ T cells of treated mice (3H uptake, IFN-γ ELISA); assay type: in vivo, C57BL/6 mice; settings: combined use of SPD, 24 hours
Experimental: FIG. 2-1 a) Treated mice were analyzed for draining lymph nodes and the inside of tumor. Briefly, draining lymph nodes of mice were isolated 13 days after tumor inoculation, and stained with antibodies to CD8 and Sca-1. FACS diagram and percentages of Sca-1^+ cells in CD8^+ T cells are shown. b) CD8^+ T cells in isolated draining lymph nodes were stimulated with CD3/CD28 antibody beads. After 24 hours, cell proliferation was examined by means of ^3H uptake. At the same time, IFN-γ concentration in culture supernatant was measured. c) Tumor from the same mice as described above was treated with collagenase. Then, expression rates of PD-1 and Tim3 in tumor-infiltrating CD8^+ T cells were analyzed. d) Oxygen consumption rate (OCR) and extracellular acidification rate (ECAR) of draining lymph node CD8^+ T cells were measured with a Seahorse analyzer (N=3 wells). For statistical analysis, ANOVA was used. * p<0.05, ** p<0.01, *** p<0.001, **** p<0.0001.
IFN-γ levels in culture supernatant were measured quantitatively with mouse IFN-γ kit (BioLegend) following the instructions on the kit.

## NCCCCNCCCN [SPD, spermidine]
CD44 high CD8+ T cells; 1 to 2 hours after stimulation
  ATP production via glycolysis (glyco ATP): not enhanced
  ATP production via mitochondria (mito ATP): not enhanced
CD44 high CD8+ T cells; 30 minutes after stimulation
  ATP production: tendency to be enhanced
  mitochondrial oxygen consumption (OCR): increased
CD44 high CD8+ T cells; 1 hour and 2 hours after stimulation
  mitochondrial oxygen consumption (OCR): decreased
CD44 high CD8+ T cells; 72 hours
  spare respiratory capacity (SRC): enhanced; also recorded: significantly high
CD44 high CD8+ T cells; 72 hours after stimulation
  mitochondrial oxygen consumption (OCR): increased again
CD44 low CD8+ T cells
  apoptotic cells: decreased
  viable cells: increased; also recorded: significantly high
[1]; 3H uptake
  cell proliferation of isolated CD8+ T cells as stimulated with CD3: enhanced
[1]; culture supernatant
  IFN-γ production of isolated CD8+ T cells as stimulated with CD3: enhanced

Source: US20220401385A1, “Combination Therapy Based on PD-1 Signaling Inhibitors” (Kyoto University, priority 2019, published 2022)
